Among the test systems are A549 NSCLC; HCT-116 colon; SK-MEL-28 melanoma; SK-MEL-5 melanoma; SK-OV-3 ovarian; SN12C renal; SNB-75 CNS; TK-10 renal; UACC-62 melanoma; LOX IMVI melanoma.
What all share (test): NCI anticancer screen, dose series, 48 h

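Following 48 hours of exposure in 96-well plates, responses at five concentrations were used to interpolate endpoints linearly. GI50 marks 50% less growth. Definition used: TGI = concentration required for complete inhibition of growth.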

For the molecule `Nc1ccn(C2CC(CO)C(O)C2O)c(=O)n1` (stereo not drawn), the TGI with A549 NSCLC, with HCT-116 colon, with SK-MEL-28 melanoma, with SK-MEL-5 melanoma, in the experiment with SK-OV-3 ovarian and in the experiment with SN12C renal was greater than 57.7 µM each time. In addition, the TGI with SNB-75 CNS, in the experiment on TK-10 renal and in the experiment on UACC-62 melanoma was greater than 57.7 µM each time.
As for `Nc1ccc(/C=N/Nc2ccnc3c(N)cccc23)c2cccnc12`, the GI50 in the experiment with A549 NSCLC was 1.68 µM; with HCT-116 colon, 0.401 µM; in the experiment on SK-MEL-28 melanoma, 1.87 µM; in the experiment with SK-MEL-5 melanoma, 1.78 µM; in the experiment with SK-OV-3 ovarian, 1.82 µM; with SNB-75 CNS, 1.74 µM. In addition, the values for the GI50 in the experiment with TK-10 renal and in the experiment with UACC-62 melanoma were 1.96 µM and 1.73 µM, respectively. In addition, the TGI in the experiment with A549 NSCLC was 3.24 µM; with HCT-116 colon, 1.85 µM; in the experiment with SK-MEL-28 melanoma it was 3.51 µM; with SK-MEL-5 melanoma it was 3.19 µM; in the experiment with SK-OV-3 ovarian it was 3.3 µM; in the experiment with SNB-75 CNS, 3.35 µM. Also, the TGI in the experiment on TK-10 renal is 3.56 µM; in the experiment on UACC-62 melanoma, 3.37 µM.
As to `COc1ccc(-c2nc(-c3nc4ccc(OC)cc4[nH]3)cc3c2[nH]c2ccccc23)cc1`, the GI50 in the experiment with A549 NSCLC was 1.92 µM; with HCT-116 colon it was 2.48 µM; with LOX IMVI melanoma, 3.14 µM; in the experiment with SK-MEL-28 melanoma, greater than 100 µM; in the experiment with SK-MEL-5 melanoma it was 2.18 µM; in the experiment with SK-OV-3 ovarian, greater than 100 µM. Further, the figures for the GI50 in the experiment with SN12C renal, with TK-10 renal and in the experiment on UACC-62 melanoma were 3.49 µM, 3.14 µM and 2.75 µM, respectively. Besides, the TGI in the experiment on A549 NSCLC, in the experiment with HCT-116 colon, with LOX IMVI melanoma, in the experiment on SK-MEL-28 melanoma, with SK-MEL-5 melanoma and with SK-OV-3 ovarian was greater than 100 µM in each case. The TGI with SN12C renal, with TK-10 renal and in the experiment with UACC-62 melanoma was greater than 100 µM each time.
Take `CC1=C(C(=O)Nc2ccc(Cl)c(Cl)c2)C(c2ccco2)C(C(=O)Nc2ccc(Cl)c(Cl)c2)=C(C)N1`: the TGI in the experiment on A549 NSCLC amounted to 28.1 µM; in the experiment on HCT-116 colon, 21.5 µM; in the experiment with SK-MEL-28 melanoma, 25.3 µM; with SK-MEL-5 melanoma, 26.9 µM; in the experiment on SK-OV-3 ovarian it was 28.5 µM; in the experiment on SN12C renal, 23.9 µM. Besides, the TGI worked out at 31.5 µM with SNB-75 CNS, 18.9 µM with TK-10 renal and 26 µM in the experiment on UACC-62 melanoma.
As for `O=C(/C=C\c1ccc(Cl)cc1Cl)c1cccs1`, the TGI with A549 NSCLC is greater than 100 µM; in the experiment on HCT-116 colon, 23.5 µM; in the experiment with SK-MEL-28 melanoma it was 42.3 µM; in the experiment on SK-MEL-5 melanoma it was 29.9 µM; in the experiment on SK-OV-3 ovarian, 59.3 µM; with SN12C renal, 32.1 µM. The results for the TGI with SNB-75 CNS, with TK-10 renal and in the experiment on UACC-62 melanoma were 42.2 µM, 78.9 µM and 28.3 µM, respectively.
As for `CCCCCCCC/C=C\CCCCCCCC(=O)NCCN(CCN)C(=O)CCCCCCC/C=C\CCCCCCCC`, the TGI in the experiment on A549 NSCLC, in the experiment with HCT-116 colon, in the experiment with LOX IMVI melanoma, in the experiment with SK-MEL-28 melanoma, with SK-MEL-5 melanoma and in the experiment with SK-OV-3 ovarian was greater than 100 µM each time. For the same molecule, the TGI in the experiment on SN12C renal, in the experiment with TK-10 renal and in the experiment on UACC-62 melanoma was greater than 100 µM throughout.
As to `COc1cc(-c2cc(-c3nc4ccc(Cl)cc4[nH]3)[nH]n2)cc(OC)c1OC`, the GI50 with A549 NSCLC is 2.96 µM; with HCT-116 colon, 3.45 µM; in the experiment with SK-MEL-28 melanoma it was 2.42 µM; in the experiment on SK-MEL-5 melanoma, 1.62 µM; in the experiment with SK-OV-3 ovarian, 4.47 µM; in the experiment with SN12C renal, 3.06 µM. In addition, the GI50 in the experiment on SNB-75 CNS was 2.71 µM; in the experiment with TK-10 renal, 3.52 µM; in the experiment with UACC-62 melanoma it was 1.97 µM. The TGI in the experiment with A549 NSCLC is 13.1 µM; with HCT-116 colon it was 12.2 µM; in the experiment with SK-MEL-28 melanoma, 7.11 µM; with SK-MEL-5 melanoma, 3.48 µM; with SK-OV-3 ovarian, 14.3 µM; with SN12C renal, 15.6 µM. Also, the TGI with SNB-75 CNS worked out at 10.4 µM; in the experiment on TK-10 renal, 15.8 µM; in the experiment on UACC-62 melanoma it was 4.95 µM.
In the case of `O=c1c2ccccc2c2nc3ccccc3nc2n1C1CCCCC1`, the TGI in the experiment with A549 NSCLC, with HCT-116 colon, with SK-MEL-28 melanoma, in the experiment with SK-MEL-5 melanoma, in the experiment with SK-OV-3 ovarian and in the experiment with SN12C renal was greater than 100 µM each time. In addition, the TGI in the experiment on SNB-75 CNS, in the experiment on TK-10 renal and with UACC-62 melanoma was greater than 100 µM throughout.
Consider `C=C(C)[C@@H]1CC[C@]2(C)[C@H](CC[C@@H]3[C@H]4[C@H]5OC[C@@]4(CCC5(C)C)CC[C@]32C)[C@@]1(C)CCCN`, for which the GI50 with A549 NSCLC was 1.69 µM; with LOX IMVI melanoma it was 0.0275 µM; in the experiment on SK-MEL-28 melanoma it was 1.83 µM; in the experiment on SK-MEL-5 melanoma, 1.91 µM; with SN12C renal, 1.63 µM; in the experiment on SNB-75 CNS, 1.53 µM. Further, the GI50 in the experiment on TK-10 renal was 1.55 µM; with UACC-62 melanoma, 1.71 µM. In addition, the TGI amounted to 3.37 µM in the experiment on A549 NSCLC; 0.489 µM with LOX IMVI melanoma; 3.36 µM in the experiment with SK-MEL-28 melanoma; 3.55 µM with SK-MEL-5 melanoma; 3.2 µM in the experiment with SN12C renal; 3.11 µM with SNB-75 CNS. Moreover, the TGI with TK-10 renal is 3.2 µM; with UACC-62 melanoma it was 3.12 µM.

These data come from PubChem BioAssay (NCI).
